Test results as given in patent US10047083B2, “Dihydropyrimidinoisoquinolinones and pharmaceutical compositions thereof for the treatment of inflammatory disorders” (GALAPAGOS NV, priority 2011, dated 2018).
pIC50: −log10 of the molar value.

Experiments:
[1] = tested on: RAW264.7 murine macrophage-like cells; conditions: RAW264.7 cells stimulated with LPS; cited from earlier work
[2] = target: T1, GPR84 (Homo sapiens, UniProt Q9NQS5); assay: GTPγS binding assay (GPR84); format: biochemical; conditions: membranes from stable cell line over expressing GPR84; 3,3′ di indolylmethane at EC80
T1 construct: expressed in transfected cells; membranes used
T1 sequence (Q9NQS5 whole entry): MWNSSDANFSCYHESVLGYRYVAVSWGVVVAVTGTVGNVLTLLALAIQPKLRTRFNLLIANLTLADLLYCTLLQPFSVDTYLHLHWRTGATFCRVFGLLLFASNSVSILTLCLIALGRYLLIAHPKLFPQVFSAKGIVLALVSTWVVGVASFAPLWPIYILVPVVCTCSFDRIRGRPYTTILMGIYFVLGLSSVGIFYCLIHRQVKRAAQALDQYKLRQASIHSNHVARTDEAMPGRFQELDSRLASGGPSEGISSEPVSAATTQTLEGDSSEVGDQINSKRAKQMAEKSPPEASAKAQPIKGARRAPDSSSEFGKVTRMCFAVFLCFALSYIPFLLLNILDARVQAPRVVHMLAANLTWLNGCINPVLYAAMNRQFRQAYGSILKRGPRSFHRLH
Procedure, shortened: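 Membranes (20 μg/well) from a stable GPR84-overexpressing line, pre-incubated with 0.1 μM GDP for 15 min at 4° C, mixed with 0.1 nM [35S]GTPγS and WGA SpA beads in 20 mM HEPES pH 7.4, 5 mM MgCl2, 250 mM NaCl, 0.05% BSA, 75 ug/mL saponin; 90 min at room temperature, then scintillation counting.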

[3] = tested on: human neutrophils; assay: Human neutrophil migration assay (embelin-induced); format: cell-based; conditions: neutrophils from human buffy coat, 30 min compound pre-incubation, migration towards embelin at EC80 for 1 h, ATPlite readout, read-out: human neutrophil migration inhibition (Neutrophils)
Procedure: 2. Cellular Assays 2.1. Human Neutrophil Migration Assay
The effect of agonists or antagonists for GPR84 can therefore be assayed in a neutrophil migration test. In the neutrophil migration assay, neutrophils, freshly isolated from buffy coats from human volunteers, are treated with a compound for 30 minutes. Subsequently, the neutrophils are transferred to the upper wells of a Corning HTS transwell 96 permeable support system, of which the lower wells are filled with a embelin solution at EC80 (concentration which gives 80% of the activity of GPR84). After 1 h of incubation, migration of the neutrophils towards embelin in the lower compartment can be quantified by measuring the ATP-content of the lower wells using the ATPlite luminescence ATP detection assay system (Perkin Elmer, Cat. No.: 436110).
A human buffy coat is diluted with an equal volume of ice cold DPBS. 20 mL of the diluted buffy coat is gently mixed with 4 mL of ACD buffer (140 mM citric acid, 200 mM sodium citrate and 220 mM dextrose). Then, 12 mL of the 6% dextran/0.9% NaCl solution (15 g dextran T2000 and 2.25 g NaCl dissolved in 250 mL H2O) is added to the mixture and the samples are inverted gently up to 20 times. The total volume was transferred to a new recipient and incubated at room temperature for 1 h for complete separation of the two phases to occur. The yellowish supernatant is then transferred to a clean centrifugation tube and centrifuged for 12 minutes at 1300 rpm and 4° C. After centrifugation, the supernatant is discarded and the remaining cell pellet is rapidly resuspended in 12 mL of ice-cold H2O for red blood cell lysis to occur. After 20 seconds, 4 mL of ice-cold 0.6 M KCl is added. Samples are mixed carefully and centrifuged for 6 minutes at 1300 rpm, 4° C. The supernatant is discarded and the red blood cell lysis procedure is repeated one more time. Subsequently, the cell pellet is resuspended in 4 mL of DPBS and layered over 5 mL of Lymphoprep (Nycomed Pharma, Cat. No.: 1114545) in a 15 mL centrifuge tube. After centrifugation for 12 min at 1300 rpm, 4° C., the supernatant is removed and the cell pellet, containing the neutrophils, is resuspended in 25 mL chemotaxis buffer (RPMI 1640 medium, supplemented with 10 mM HEPES; freshly made for each experiment)
A cell suspension of 8.9×10^6 cells per milliliter is prepared. 20 μL of compound solution in chemotaxis buffer is added to 180 μL cell suspension. The mixture is incubated at 37° C. for 30 minutes with intermediate resuspension of the cells after 15 minutes. Following this, 70 μL cell suspension is transferred to the upper compartment of a Corning HTS transwell 96 permeable support system with 5.0 μm pore size polycarbonate membrane (Corning, Cat. No.: 3387). The receiver well of the transwell system is then filled with 200 μL chemotaxis buffer containing compound and chemotactic agent (embelin). After incubation at 37° C. in 5% CO2 for 1 h, the upper plate of the transwell system is removed and the cell suspension in the receiver plate is transferred to a 96-well V-bottom plate. 50 μL of DPBS is added to the receiver plate to prevent remaining cells from drying out. The V-bottom plate is centrifuged for 6 minutes at 1500 rpm. The supernatant is removed and the cells are resuspended in 50 μL DPBS. The cells are then transferred back to the receiver plate of the transwell system. After this, 100 μL ATPlite solution (Perkin Elmer, Cat. No: 436110) was added to the cells. The plate is incubated for 10 minutes in the dark, while shaking. […] of cell lysate is then transferred to a white 96-well plate and luminescence is measured. The detected luminescent signal is considered as linearely related to the number of cells having migrated from the upper well to the receiver well.

[4] = target: T1, GPR84; conditions: Wang et al. (2006); WO 2007/027661A2; cited from earlier work
[5] = tested on: human neutrophils; assay: Human neutrophil migration assay (embelin-induced); format: cell-based

Structure (SMILES): CCCCCCCCCC(=O)O [capric acid]
- secretion of interleukin-12 p40 subunit (IL-12 p40) [1]: dose dependently increased

Structure (SMILES): CCCCCCCCCCC(=O)O [undecanoic acid]
- secretion of interleukin-12 p40 subunit (IL-12 p40) [1]: dose dependently increased

Structure (SMILES): CC(O)CCc1ccc2c(c1)CCn1c-2cc(OC[C@@H]2COCCO2)nc1=O (stereo partly drawn) [Compound 140, 2-((S)-1-[1,4]dioxan-2-ylmethoxy)-9-(3-hydroxy-butyl)-6,7-dihydro-pyrimido[6,1-a]isoquinolin-4-one]
- pIC50 [2]: 6.30 to 7.00
- pIC50 [3]: 7.00 to 11.00

Structure (SMILES): c1ccc2c(Cc3c[nH]c4ccccc34)c[nH]c2c1 [3,3′ di-indolylmethane]
- GPR84 agonist activity [4]: some GPR84 agonist activity

Structure (SMILES): c1ccc2c(Cc3c[nH]c4ccccc34)c[nH]c2c1 [3,3′ di indolylmethane]
- induction of neutrophil chemotaxis by GPR84 agonists [5]: induce neutrophil chemo taxis

Structure (SMILES): COCCCc1ccc2c(c1)CCn1c-2cc(OC[C@H]2COCCO2)nc1=O [Compound 168, 2-((R)-1-[1,4]Dioxan-2-ylmethoxy)-9-(3-methoxy-propyl)-6,7-dihydro-pyrimido[6,1-a]isoquinolin-4-one]
- pIC50 [2]: 6.30 to 7.00
- pIC50 [3]: 7.00 to 11.00

Structure (SMILES): CCCCCCCCCC(=O)[O-].[Na+] [sodiumdecanoate]
- induction of neutrophil chemotaxis by GPR84 agonists [5]: induce neutrophil chemo taxis

Structure (SMILES): CCC(C)(C)CNc1ccc2c(c1)CCn1c-2cc(OC[C@@H]2COCCO2)nc1=O [Compound 126, 9-(2,2-dimethyl-butylamino)-2-((S)-1-[1,4]dioxan-2-ylmethoxy)-6,7-dihydro-pyrimido[6,1-a]isoquinolin-4-one]
- pIC50 [2]: 7.00 to 11.00
- pIC50 [3]: 7.00 to 11.00

Structure (SMILES): O=c1nc(OCC2COCCO2)cc2n1CCc1cc(OCc3ncco3)ccc1-2 (stereo not drawn) [Compound 8, 2-([1,4]dioxan-2-ylmethoxy)-9-(oxazol-2-ylmethoxy)-6,7-dihydro-pyrimido[6,1-a]isoquinolin-4-one]
- pIC50 [2]: 6.30 to 7.00
- pIC50 [3]: 6.30 to 7.00

Structure (SMILES): O=c1nc(OC[C@@H]2COCCO2)cc2n1CCc1cc(CCC3CC3)ccc1-2 [Compound 123, 9-(2-cyclopropyl-ethyl)-2-((S)-1-[1,4]dioxan-2-ylmethoxy)-6,7-dihydropyrimido[6,1-a]isoquinolin-4-one]
- pIC50 [2]: 7.00 to 11.00
- pIC50 [3]: 7.00 to 11.00

Structure (SMILES): O=c1nc(OCC2COCCO2)cc2n1CCc1cc(-c3ccc(N4CCOCC4)nc3)ccc1-2 (stereo not drawn) [Compound 62, 2-([1,4]dioxan-2-ylmethoxy)-9-(6-morpholin-4-yl-pyridin-3-yl)-6,7-dihydro-pyrimido[6,1-a]isoquinolin-4-one]
- pIC50 [2]: 7.00 to 11.00
- pIC50 [3]: 7.00 to 11.00

Structure (SMILES): N#CCOc1ccc2c(c1)CCn1c-2cc(OCC2COCCO2)nc1=O (stereo not drawn) [Compound 7, [2-([1,4]dioxan-2-ylmethoxy)-4-oxo-6,7-dihydro-4H-pyrimido[6,1-a]isoquinolin-9-yloxy]-acetonitrile]
- pIC50 [2]: 6.30 to 7.00
- pIC50 [3]: 6.30 to 7.00

Structure (SMILES): O=c1nc(OCC2COCCO2)cc2n1CCc1cc(CCCNc3ccccc3)ccc1-2 (stereo in doubt) [Compound 149, 2-((S)-1-[1,4]dioxan-2-ylmethoxy)-9-(3-phenylamino-propyl)-6,7-dihydro-pyrimido[6,1-a]isoquinolin-4-one]
- pIC50 [2]: 7.00 to 11.00
- pIC50 [3]: 7.00 to 11.00

Structure (SMILES): CCCCCCCCCCCC(=O)O [lauric acid]
- secretion of interleukin-12 p40 subunit (IL-12 p40) [1]: dose dependently increased

Structure (SMILES): O=c1nc(OC[C@@H]2COCCO2)cc2n1CCc1cc(COCC3CCOCC3)ccc1-2 [Compound 161, 2-((S)-1-[1,4]dioxan-2-ylmethoxy)-9-(tetrahydro-pyran-4-ylmethoxymethyl)-6,7-dihydro-pyrimido[6,1-a]isoquinolin-4-one]
- pIC50 [2]: 6.30 to 7.00
- pIC50 [3]: 7.00 to 11.00

Structure (SMILES): CC(C)C(O)C#Cc1ccc2c(c1)CCn1c-2cc(OCC2COCCO2)nc1=O (stereo not drawn) [Compound 90, 2-([1,4]Dioxan-2-ylmethoxy)-9-(3-hydroxy-4-methyl-pent-1-ynyl)-6,7-dihydro-pyrimido[6,1-a]isoquinolin-4-one]
- pIC50 [2]: 7.00 to 11.00
- pIC50 [3]: 7.00 to 11.00

Structure (SMILES): Cn1cncc1C#Cc1ccc2c(c1)CCn1c-2cc(OCC2COCCO2)nc1=O (stereo not drawn) [Compound 16, 2-([1,4]dioxan-2-ylmethoxy)-9-(3-methyl-3H-imidazol-4-ylethynyl)-6,7-dihydro-pyrimido[6,1-a]isoquinolin-4-one]
- pIC50 [2]: 6.30 to 7.00
- pIC50 [3]: 6.30 to 7.00

Structure (SMILES): COc1ncccc1-c1ccc2c(c1)CCn1c-2cc(OCC2COCCO2)nc1=O (stereo not drawn) [Compound 56, 2-([1,4]dioxan-2-ylmethoxy)-9-(2-methoxy-pyridin-3-yl)-6,7-dihydro-pyrimido[6,1-a]isoquinolin-4-one]
- pIC50 [2]: 6.30 to 7.00
- pIC50 [3]: 6.30 to 7.00

Structure (SMILES): COCCOCC#Cc1ccc2c(c1)CCn1c-2cc(OC[C@@H]2COCCO2)nc1=O [Compound 133, 2-((S)-1-[1,4]dioxan-2-ylmethoxy)-9-[3-(2-methoxy-ethoxy)-prop-1-ynyl]-6,7-dihydro-pyrimido[6,1-a]isoquinolin-4-one]
- pIC50 [2]: 6.30 to 7.00
- pIC50 [3]: 7.00 to 11.00

Structure (SMILES): CC(C)OCCOc1ccc2c(c1)CCn1c-2cc(OC[C@@H]2COCCO2)nc1=O [Compound 171, 2-((S)-1-[1,4]Dioxan-2-ylmethoxy)-9-(2-isopropoxy-ethoxy)-6,7-dihydro-pyrimido[6,1-a]isoquinolin-4-one]
- pIC50 [2]: 7.00 to 11.00
- pIC50 [3]: 7.00 to 11.00

Structure (SMILES): CC(C)(O)CCCc1ccc2c(c1)CCn1c-2cc(OC[C@@H]2COCCO2)nc1=O [Compound 160, 2-((S)-1-[1,4]dioxan-2-ylmethoxy)-9-(4-hydroxy-4-methyl-pentyl)-6,7-dihydro-pyrimido[6,1-a]isoquinolin-4-one]
- pIC50 [2]: 6.30 to 7.00
- pIC50 [3]: 6.30 to 7.00

Structure (SMILES): CC(C)C#Cc1ccc2c(c1)CCn1c-2cc(OCC2COCCO2)nc1=O (stereo not drawn) [Compound 83, 2-([1,4]dioxan-2-ylmethoxy)-9-(3-methyl-but-1-ynyl)-6,7-dihydro-pyrimido[6,1-a]isoquinolin-4-one]
- pIC50 [2]: 7.00 to 11.00
- pIC50 [3]: 7.00 to 11.00

Structure (SMILES): O=c1nc(OCC2COCCO2)cc2n1CCc1cc(C#Cc3ccccn3)ccc1-2 (stereo not drawn) [Compound 36, 2-([1,4]dioxan-2-ylmethoxy)-9-pyridin-2-ylethynyl-6,7-dihydro-pyrimido[6,1-a]isoquinolin-4-one]
- pIC50 [2]: 7.00 to 11.00
- pIC50 [3]: 6.30 to 7.00

Structure (SMILES): O=c1nc(OCC2COCCO2)cc2n1CCc1cc(OCc3ccccn3)ccc1-2 (stereo not drawn) [Compound 9, 2-([1,4]dioxan-2-ylmethoxy)-9-(pyridin-2-ylmethoxy)-6,7-dihydro-pyrimido[6,1-a]isoquinolin-4-one]
- pIC50 [2]: 7.00 to 11.00
- pIC50 [3]: 7.00 to 11.00
